Where “and” joins values, the source holds several entries; their conditions need not be identical. Identical values can stand only once.

Here are results for two molecules from paper PMC3034727 (PLoS ONE, 2011).

One test concerns the target Hokkaido virus NA (Influenza A virus, UniProt Q7TER1). It is filed as biochemical, Influenza virus strain A/Hokkaido/15/02 H1N1.
In test [1] the target is Construct 2 (recombinant Hokkaido N1 NA, GCN4-pLI stalk) (Influenza A virus, UniProt Q7TER1). The class given is biochemical, Influenza virus strain A/Hokkaido/15/02 H1N1.
Construct 2 (recombinant Hokkaido N1 NA, GCN4-pLI stalk), sequence (Q7TER1 70-470): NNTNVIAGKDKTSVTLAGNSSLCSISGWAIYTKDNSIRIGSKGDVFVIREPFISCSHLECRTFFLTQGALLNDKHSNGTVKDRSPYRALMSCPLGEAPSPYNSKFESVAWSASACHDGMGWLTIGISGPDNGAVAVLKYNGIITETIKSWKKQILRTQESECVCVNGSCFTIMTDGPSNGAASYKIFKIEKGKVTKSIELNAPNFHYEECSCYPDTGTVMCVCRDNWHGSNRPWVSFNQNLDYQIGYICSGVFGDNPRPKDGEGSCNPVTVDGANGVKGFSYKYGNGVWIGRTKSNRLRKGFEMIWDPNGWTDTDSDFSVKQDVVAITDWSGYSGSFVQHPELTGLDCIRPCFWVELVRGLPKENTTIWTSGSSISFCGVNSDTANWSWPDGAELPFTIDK
Test [2] deals with Construct 4 (recombinant Hokkaido N1 NA, Tetrabrachion stalk) (Influenza A virus, UniProt Q7TER1). It is filed as biochemical, Influenza virus strain A/Hokkaido/15/02 H1N1.
Construct 4 (recombinant Hokkaido N1 NA, Tetrabrachion stalk), sequence (Q7TER1 70-470): as above
Test [3] deals with Construct 4: FLAG-tagged recombinant Hokkaido N1 neuraminidase with an artificial Tetrabrachion stalk (Staphylothermus marinus | influenza A virus A/Hokkaido/15/02 (H1N1)). The experiment in a line: SEC.

Hokkaido virus NA, sequence (Q7TER1 entry or part of it, added parts left off): as the sequence (Q7TER1 70-470) above

As to `CC(=O)N[C@H]1[C@H]([C@H](O)[C@H](O)CO)OC(Oc2ccc3c(C)cc(=O)oc3c2)(C(=O)O)C[C@@H]1O` (stereo partly drawn) [MUNANA, 4-Methylumbelliferyl N-acetyl-a-D-Neuraminic acid], the “K m value for MUNANA” value was 24.1 µM and 24.1 ± 1.1 µM on Hokkaido virus NA; 54.4 µM and 54.1 µM and 54.1 ± 4.4 µM in test [1]; 34.7 µM and 34.7 ± 1.9 µM in test [2].

For the molecule “Construct 4: FLAG-tagged recombinant Hokkaido N1 neuraminidase with an artificial Tetrabrachion stalk (enzyme)”, the stoichiometry N in test [3] was determined as 4.

The term stoichiometry N denotes the number of molecules, sites or subunits per partner or assembly.
